Where two headings read alike, the source gives them in different places.
Assays:
Assay type in all cases: binding
[1] = target: T1, HeLa cell extract proteins (Homo sapiens, UniProt P61619)
T1 construct: endogenous in cells; host or cells: HeLa cell extract

[2] = target: T2, HeLa cell extract proteins (Homo sapiens, UniProt Q03393)
T2 construct: endogenous in cells; host or cells: HeLa cell extract
T2 sequence (Q03393 1-145): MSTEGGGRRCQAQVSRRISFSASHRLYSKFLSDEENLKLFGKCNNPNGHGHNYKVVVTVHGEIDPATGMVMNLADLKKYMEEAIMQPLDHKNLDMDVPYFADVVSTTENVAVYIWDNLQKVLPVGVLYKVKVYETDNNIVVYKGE

[3] = target: T3, HeLa cell extract proteins (Homo sapiens, UniProt Q04837)
T3 construct: endogenous in cells; host or cells: HeLa cell extract
T3 sequence (Q04837 17-148): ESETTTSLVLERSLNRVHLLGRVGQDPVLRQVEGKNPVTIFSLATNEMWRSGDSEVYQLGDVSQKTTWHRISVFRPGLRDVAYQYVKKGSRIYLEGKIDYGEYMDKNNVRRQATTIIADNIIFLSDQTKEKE

[4] = target: T4, HeLa cell extract proteins (Homo sapiens, UniProt Q5SRE5)
T4 construct: endogenous in cells; host or cells: HeLa cell extract

[5] = target: T5, HeLa cell extract proteins (Homo sapiens, UniProt Q86VP6)
T5 construct: endogenous in cells; host or cells: HeLa cell extract
T5 sequence (Q86VP6 1-1230): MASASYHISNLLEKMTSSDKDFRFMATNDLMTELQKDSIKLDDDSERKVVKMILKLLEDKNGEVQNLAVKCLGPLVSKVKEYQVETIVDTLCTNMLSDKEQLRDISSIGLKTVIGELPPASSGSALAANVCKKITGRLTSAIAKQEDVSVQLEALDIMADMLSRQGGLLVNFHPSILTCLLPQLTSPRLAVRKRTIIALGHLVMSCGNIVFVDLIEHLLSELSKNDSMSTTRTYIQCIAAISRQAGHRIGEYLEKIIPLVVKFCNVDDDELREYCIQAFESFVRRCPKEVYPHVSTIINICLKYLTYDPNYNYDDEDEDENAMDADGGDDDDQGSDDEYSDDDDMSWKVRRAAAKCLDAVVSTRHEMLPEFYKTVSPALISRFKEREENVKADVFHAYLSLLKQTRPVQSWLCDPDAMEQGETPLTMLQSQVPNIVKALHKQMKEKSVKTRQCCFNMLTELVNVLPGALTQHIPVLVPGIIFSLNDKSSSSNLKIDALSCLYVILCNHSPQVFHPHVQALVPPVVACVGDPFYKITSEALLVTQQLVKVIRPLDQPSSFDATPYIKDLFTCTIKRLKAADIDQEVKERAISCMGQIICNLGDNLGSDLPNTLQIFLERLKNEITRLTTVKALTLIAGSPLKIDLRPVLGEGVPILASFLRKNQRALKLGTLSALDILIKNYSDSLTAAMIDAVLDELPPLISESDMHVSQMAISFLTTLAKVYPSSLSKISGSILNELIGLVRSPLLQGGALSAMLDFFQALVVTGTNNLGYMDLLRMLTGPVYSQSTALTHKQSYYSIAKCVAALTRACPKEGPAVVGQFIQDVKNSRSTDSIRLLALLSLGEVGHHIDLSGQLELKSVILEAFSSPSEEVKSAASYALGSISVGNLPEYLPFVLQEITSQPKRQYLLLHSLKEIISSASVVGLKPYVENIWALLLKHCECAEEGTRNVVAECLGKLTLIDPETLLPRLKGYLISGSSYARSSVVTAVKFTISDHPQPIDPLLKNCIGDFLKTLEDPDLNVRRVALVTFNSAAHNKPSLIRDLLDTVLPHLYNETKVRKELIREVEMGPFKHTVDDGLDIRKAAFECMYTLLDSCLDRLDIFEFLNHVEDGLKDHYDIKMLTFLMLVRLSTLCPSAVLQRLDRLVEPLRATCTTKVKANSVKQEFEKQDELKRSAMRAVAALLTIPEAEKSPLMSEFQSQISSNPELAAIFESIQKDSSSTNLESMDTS

[6] = target: T6, HeLa cell extract proteins (Homo sapiens, UniProt Q9H000)
T6 construct: endogenous in cells; host or cells: HeLa cell extract
T6 sequence (Q9H000 1-416): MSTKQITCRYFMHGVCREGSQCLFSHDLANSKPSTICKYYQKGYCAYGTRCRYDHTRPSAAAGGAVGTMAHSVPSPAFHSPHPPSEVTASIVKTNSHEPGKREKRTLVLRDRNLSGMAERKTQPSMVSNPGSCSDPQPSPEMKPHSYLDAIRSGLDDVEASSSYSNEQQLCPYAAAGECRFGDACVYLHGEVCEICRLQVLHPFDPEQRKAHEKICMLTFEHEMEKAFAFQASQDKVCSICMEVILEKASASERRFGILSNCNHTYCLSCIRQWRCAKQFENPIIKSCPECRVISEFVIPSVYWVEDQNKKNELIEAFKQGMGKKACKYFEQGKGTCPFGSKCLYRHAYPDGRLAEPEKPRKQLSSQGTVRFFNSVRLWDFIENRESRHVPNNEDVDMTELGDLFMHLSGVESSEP

[7] = target: T7, HeLa cell extract proteins (Homo sapiens, UniProt Q9H0N5)
T7 construct: endogenous in cells; host or cells: HeLa cell extract

[8] = HeLa, protein MKRN2 (MAKORIN-2)

T7 sequence (Q9H0N5 whole entry): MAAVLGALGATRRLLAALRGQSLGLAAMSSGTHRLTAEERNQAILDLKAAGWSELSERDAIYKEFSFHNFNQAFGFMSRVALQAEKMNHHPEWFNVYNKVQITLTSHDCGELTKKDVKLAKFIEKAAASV
T4 sequence (Q5SRE5 whole entry): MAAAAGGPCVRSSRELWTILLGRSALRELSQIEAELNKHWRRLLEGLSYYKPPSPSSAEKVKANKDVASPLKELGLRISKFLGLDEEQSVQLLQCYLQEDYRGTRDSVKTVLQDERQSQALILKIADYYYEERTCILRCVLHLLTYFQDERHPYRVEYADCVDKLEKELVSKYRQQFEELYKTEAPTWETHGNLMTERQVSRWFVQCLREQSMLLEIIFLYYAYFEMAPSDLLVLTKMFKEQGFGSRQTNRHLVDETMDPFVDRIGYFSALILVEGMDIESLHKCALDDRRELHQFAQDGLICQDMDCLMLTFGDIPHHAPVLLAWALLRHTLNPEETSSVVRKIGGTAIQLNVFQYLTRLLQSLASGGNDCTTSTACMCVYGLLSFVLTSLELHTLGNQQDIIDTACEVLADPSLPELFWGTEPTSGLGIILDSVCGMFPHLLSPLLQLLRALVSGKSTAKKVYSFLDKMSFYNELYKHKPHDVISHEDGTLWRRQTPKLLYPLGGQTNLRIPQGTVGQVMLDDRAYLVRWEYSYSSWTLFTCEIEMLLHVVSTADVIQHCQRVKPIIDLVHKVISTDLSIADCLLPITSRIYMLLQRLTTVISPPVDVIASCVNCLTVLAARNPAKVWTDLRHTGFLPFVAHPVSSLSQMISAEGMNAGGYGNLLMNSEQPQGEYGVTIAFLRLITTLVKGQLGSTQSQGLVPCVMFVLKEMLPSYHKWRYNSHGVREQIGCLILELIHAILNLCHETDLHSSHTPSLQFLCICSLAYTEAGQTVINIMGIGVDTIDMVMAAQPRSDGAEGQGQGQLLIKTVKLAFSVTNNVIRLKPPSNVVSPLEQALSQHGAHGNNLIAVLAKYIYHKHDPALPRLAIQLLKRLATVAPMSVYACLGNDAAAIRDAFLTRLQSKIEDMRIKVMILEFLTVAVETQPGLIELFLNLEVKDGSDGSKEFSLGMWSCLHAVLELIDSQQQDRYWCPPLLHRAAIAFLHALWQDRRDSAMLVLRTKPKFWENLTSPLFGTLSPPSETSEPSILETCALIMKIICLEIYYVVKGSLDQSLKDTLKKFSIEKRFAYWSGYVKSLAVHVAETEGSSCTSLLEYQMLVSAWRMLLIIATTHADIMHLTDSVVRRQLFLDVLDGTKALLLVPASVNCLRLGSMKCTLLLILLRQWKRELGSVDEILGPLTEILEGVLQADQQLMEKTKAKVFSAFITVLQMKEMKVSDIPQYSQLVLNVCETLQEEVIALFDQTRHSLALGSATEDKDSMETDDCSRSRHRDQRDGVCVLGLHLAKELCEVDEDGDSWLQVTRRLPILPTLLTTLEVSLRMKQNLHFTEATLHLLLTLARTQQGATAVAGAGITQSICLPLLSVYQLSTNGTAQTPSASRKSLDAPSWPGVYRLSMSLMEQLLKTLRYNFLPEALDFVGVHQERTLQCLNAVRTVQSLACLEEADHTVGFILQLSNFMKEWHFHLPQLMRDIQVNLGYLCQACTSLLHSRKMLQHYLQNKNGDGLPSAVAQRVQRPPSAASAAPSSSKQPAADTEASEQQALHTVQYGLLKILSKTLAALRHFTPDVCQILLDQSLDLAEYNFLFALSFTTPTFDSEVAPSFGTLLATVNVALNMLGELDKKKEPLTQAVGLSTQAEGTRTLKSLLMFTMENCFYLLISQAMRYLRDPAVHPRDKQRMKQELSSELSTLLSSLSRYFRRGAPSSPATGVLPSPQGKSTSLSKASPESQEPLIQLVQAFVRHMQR
T1 sequence (P61619 whole entry): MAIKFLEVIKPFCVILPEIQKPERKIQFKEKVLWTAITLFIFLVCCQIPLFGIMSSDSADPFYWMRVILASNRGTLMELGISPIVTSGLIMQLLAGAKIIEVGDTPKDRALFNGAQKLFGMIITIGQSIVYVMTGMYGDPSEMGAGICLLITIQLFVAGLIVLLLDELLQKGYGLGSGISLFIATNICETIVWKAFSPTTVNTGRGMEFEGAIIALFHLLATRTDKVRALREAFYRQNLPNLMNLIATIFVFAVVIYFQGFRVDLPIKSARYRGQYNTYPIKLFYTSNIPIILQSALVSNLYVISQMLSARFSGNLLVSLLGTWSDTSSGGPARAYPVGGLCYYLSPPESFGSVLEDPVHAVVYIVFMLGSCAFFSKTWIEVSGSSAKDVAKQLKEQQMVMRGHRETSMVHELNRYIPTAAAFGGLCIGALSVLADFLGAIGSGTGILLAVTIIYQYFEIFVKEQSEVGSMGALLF

SMILES	fold changes relative to vehicle control ([1]; HeLa, protein SEC61A1)	fold changes relative to vehicle control ([2]; protein PTS, HeLa)	fold changes relative to vehicle control ([3]; HeLa, protein SSBP1)	fold changes relative to vehicle control ([4]; HeLa, captured protein NUP188)	fold changes relative to vehicle control ([5]; protein CAND1, HeLa)	fold changes relative to vehicle control [6, 8]	fold changes relative to vehicle control ([7]; HeLa, captured protein PCBD2)	fold changes relative to vehicle control [1]	fold changes relative to vehicle control [2]	fold changes relative to vehicle control [3]	fold changes relative to vehicle control [4]	fold changes relative to vehicle control [5]	fold changes relative to vehicle control [6]	fold changes relative to vehicle control [7]	fold changes relative to vehicle control ([2]; captured protein PTS, HeLa)	fold changes relative to vehicle control ([4]; HeLa, protein NUP188)	fold changes relative to vehicle control ([6]; captured protein MKRN2, HeLa)	fold changes relative to vehicle control ([7]; captured protein PCBD2, HeLa)
Nc1nc2c(c(=O)[nH]1)N(C=O)C(CNc1ccc(C(=O)N[C@@H](CCC(=O)O)C(=O)O)cc1)CN2 (stereo partly shown) [LEU, leucovorin]	0.99	0.83	1.07	1.13	0.99	1.02	1.14	–	–	–	–	–	–	–	–	–	–	–
Nc1nc2[nH]cc(CCc3ccc(C(=O)N[C@@H](CCC(=O)O)C(=O)O)cc3)c2c(=O)[nH]1 [PTX, pemetrexed]	–	–	–	–	–	–	–	0.98	0.23	1	1.17	0.96	0.91	0.99	–	–	–	–
CCCCCCOc1ccc(Cc2cnc(N)nc2N)cc1 [compound 1]	1.02	–	1.05	–	1.15	–	–	–	–	–	–	–	–	–	0.72	1.07	0.9	0.88
CCCCCCOc1cccc(Cc2cnc(N)nc2N)c1 [compound 2]	1.01	–	0.95	–	1.95	–	–	–	–	–	–	–	–	–	1.01	1.08	0.9	0.77
Nc1nc2cccc(-c3ccccc3)c2n1Cc1ccc(Cl)c(Cl)c1 [compound 3]	1	–	1	–	0.86	–	–	–	–	–	–	–	–	–	1.1	1.07	0.89	1
NCCOCCOCC(=O)Nc1nc2ncc(CNc3ccc(C(=O)NC(CCC(=O)O)C(=O)O)cc3)nc2c(=O)[nH]1 (stereo not shown) [compound 6]	1.03	0.39	0.96	1.17	1.11	0.92	1.02	–	–	–	–	–	–	–	–	–	–	–
NCCCNc1ccc(C(=O)NC(CCC(=O)O)C(=O)O)cc1 (stereo not shown) [compound 7]	1.06	1.03	0.95	1.07	0.77	0.98	1.14	–	–	–	–	–	–	–	–	–	–	–
